Test results reported in patent US8101656B2, “Use of 2,2-dimethyl-3-(2,4-dichlorophenyl)-2-oxo-1-oxaspiro[4,5]dec-3-en-4-yl butanoate for controlling acarides” (Bayer CropScience AG, priority 2003, dated 2012).

Legend:
Assay type in all cases: in vivo
Tetranychus urticae [1] = assay: Example B: field spray test against spider mites on hops; conditions: 2200 l/ha, sprayed once
Procedure: Pest: Tetranycus Urticae Crop: Hops The compound of the formula (I) (240SC) was tested at a concentration of 0.0144% a.i. in comparison with the standard Amitraz (200 EC) at 0.05% a.i. The mixture was sprayed once. The spray mixture (2200 l/ha) was applied using a trailed machine operated by a tractor. The plot size was 60 plants, and 2 replications were carried out per test variant. The activity against spider mites was determined 5, 12, 19 and 34 days after the treatment by counting the live animals/leaf (60 leaves/plot) and calculating the efficacy using Abbott's formula.

Tetranychus urticae [2] = assay: Example A: field spray test against spider mites on hops; conditions: 2000 l/ha
Procedure: Pest: Tetranychus Urticae Crop: Hops The compound of the formula (I) (240SC) was tested at a concentration of 0.0048% a.i. in comparison with cis-cyhalothrin (050EC) at 0.005% a.i. The compound of the formula (I) was used at an early stage of the infestation of the pest, while cis-cyhalothrin was applied when the infestation had progressed to a high level. The spray mixture (2000 l/ha) was applied using a knapsack sprayer operated with compressed air. The plot size was 6 plants, the number of replications per test variant was 2. The activity against spider mites was determined 4, 14 and 21 days (compound of the formula (I)) and 4, 11 and 18 days (cis-cyhalothrin) after the treatment by counting the live animals/leaf (10 leaves/plot) and calculating the efficacy using Abbott's formula.

Eotetranychus hicoriae = assay: Example D: spray test against pecan leaf scorch mite on pecan nut tree; conditions: 0.313 pounds a.i. per acre
Procedure: Pest: Eotetranychus Hicoriae
The compound of the formula (I) (240 SC) was tested at an application rate of 0.313 lb a.i. per acre in comparison with ACRAMIT (Bifenazate, 50 WP) at 0.50 pound of a.i. per acre.
The spray mixture (105 gallons per acre) was applied by means of a motor-operated hand-held sprayer.
The experiment was carried out with one tree per plot and four replication experiments.
The efficacy against the pecan leaf scorch mite was determined by counting the number of live mites on five leaves per tree 6 and 13 days after the application and subsequently calculated by means of the Abbott formula.

Tetranychus urticae [3] = assay: Example C: spray test against spider mites (eggs and nymphs) on black walnut tree; conditions: 0.126 pounds a.i. per acre
Procedure: Pest: Tetranychus Urticae
The compound of the formula (I) (240 SC) was tested at a concentration of 2.02 ounces a.i. per 100 gallons (=0.126 pounds a.i. per acre) in comparison with PYRAMAT (Pyridaben, 75 WP) at an application rate of 0.125 pound a.i. per acre.
The spray mixture (100 gallons per acre) was applied by means of a motor-operated hand-held sprayer.
The test was carried out with one tree per plot and three replication experiments.
The efficacy against spider mites was calculated by counting the live eggs and nymphs on eight leaves per tree before and one, two and six weeks after the application and subsequently calculated using the formula of Henderson & Tilton.

Cc1ccc(/N=C/N(C)/C=N/c2ccc(C)cc2C)c(C)c1 [Amitraz (200 EC), Amitraz, reference compound] was tested, and the “Efficacy in % Abbott” value (Tetranychus urticae [1]; 0.05% a.i., 5 days after treatment) was 80.1%, the “Efficacy in % Abbott” value (Tetranychus urticae [1]; 0.05% a.i., 12 days after treatment) was 96.3% and the “Efficacy in % Abbott” value (Tetranychus urticae [1]; 0.05% a.i., 19 days after treatment) was 92.2%.

For CC1(C)C(/C=C(\Cl)C(F)(F)F)C1C(=O)OC(C#N)c1cccc(Oc2ccccc2)c1 (stereo not drawn) [Cis-cyhalothrin (050 EC), cis-cyhalothrin, reference compound], the “Efficacy in % Abbott” value (Tetranychus urticae [2]; 0.005% a.i., applied at high level of infestation, 4 days after treatment) was 59%, the “Efficacy in % Abbott” value (Tetranychus urticae [2]; 0.005% a.i., applied at high level of infestation, 11 days after treatment) was 57% and the “Efficacy in % Abbott” value (Tetranychus urticae [2]; 0.005% a.i., applied at high level of infestation, 18 days after treatment) was 0%.

For CCC(C)(C)C(=O)OC1=C(c2ccc(Cl)cc2Cl)C(=O)OC12CCCCC2 [Compound of the formula (I) (240 SC), 2,2-Dimethyl-3-(2,4-dichlorophenyl)-2-oxo-1-oxaspiro[4.5]dec-3-en-yl butanoate], the “Efficacy in % Abbott” value (Tetranychus urticae [1]; 0.0144% a.i., 5 days after treatment) was 89.7%, the “Efficacy in % Abbott” value (Tetranychus urticae [1]; 0.0144% a.i., 12 days after treatment) was 98.1% and the “Efficacy in % Abbott” value (Tetranychus urticae [1]; 0.0144% a.i., 19 days after treatment) was 99.6%. For the same molecule, the “Efficacy in Abbot %” value (Eotetranychus hicoriae; 6 DAA (days after application)) was 100%, the “Efficacy in Abbot %” value (Eotetranychus hicoriae; 13 DAA) was 80% and the “Efficacy in % Abbott” value (Tetranychus urticae [2]; 0.0048% a.i., applied at early stage of infestation, 4 days after treatment) was 90%. For the same molecule, the “Efficacy in % Abbott” value (Tetranychus urticae [2]; 0.0048% a.i., applied at early stage of infestation, 14 days after treatment) was 94%, the “Efficacy in % Abbott” value (Tetranychus urticae [2]; 0.0048% a.i., applied at early stage of infestation, 21 days after treatment) was 93% and the “Efficacy in Henderson&Tilton % against NYMPHS” value (Tetranychus urticae [3]; 1 WAA) was 100%. For the same molecule, the “Efficacy in Henderson&Tilton % against EGGS” value (Tetranychus urticae [3]; 1 WAA (one week after application)) was 100%, the “Efficacy in Henderson&Tilton % against EGGS” value (Tetranychus urticae [3]; 2 WAA) was 100% and the “Efficacy in Henderson&Tilton % against NYMPHS” value (Tetranychus urticae [3]; 2 WAA) was 100%. For the same molecule, the “Efficacy in Henderson&Tilton % against EGGS” value (Tetranychus urticae [3]; 6 WAA) was 64% and the “Efficacy in Henderson&Tilton % against NYMPHS” value (Tetranychus urticae [3]; 6 WAA) was 83%.
